“Also recorded” adds a separate entry of the source. Where two headings read alike, the source gives them in different places.
Tests used:
[1] = test system: full-thickness skin wound models; test: Wound size-reducing effect in skin wound mouse model; type: in vivo, BALB/c female mice; settings: 6 days after administration
From the text: (§1) Commercially available wound healing agents, Madecassol care ointment (Dongguk Pharmaceuticals, Korea) and Easyef cell regenerating ointment (Daewoong Pharmaceuticals) were used as positive control groups.
(§2) In detail, 7-week-old BALB/c female mice (DooYeol Biotech) were acclimated for 1 week, and then anesthetized by an intraperitoneal injection of a mixture of Ketamine and rumpun. The dorsal hair was removed using an electric razor and a hair removal cream (Veet). Povidone and 70% ethanol were used to disinfect the area from which the epidermis was to be removed, and a 5-mm biopsy punch was used to apply a full-thickness wound on both sides of the lower buttocks, while avoiding the spine of the mouse. To prevent spontaneous wound contraction by the superficial muscle of the mouse, a silicone ring with an outer diameter of 15 mm and an inner diameter of 8 mm was attached around the wounded area using suture threads.
Thereafter, to the wound site, phosphate buffered saline as the negative control was administered, and Madecassol care and Easyef cell regenerating ointments as the positive controls were administered. […]
In detail, the reduced wound size was calculated as the size of wound area by analyzing an image of the wound at 0 day and 6 days after administration of the novel formulations. The size of wound area was quantified by using Photoshop.

[2] = test system: human dermal fibroblast cells; settings: for cell proliferation rate: 48 hours, MTT
Description: The cell proliferative effect of SP was analyzed by MTT assay.
In detail, 100 μl of a human dermal fibroblast cell suspension of 3×10^4 CFU/ml was put in a 96-well culture plate, and incubated for 24 hours. FGM medium (fibroblast growth medium; fibroblast basal medium containing hFGF-B, insulin, fetal bovine serum (FBS), gentamicin, and amphotericin-B) were removed, and then 180 μl of fresh FGM medium was dispensed into each well, and then 20 μl of SP diluted with phosphate buffered saline (PBS) was inoculated by varying its concentration (0.1, 1, 5, 10, 50, and 100 μg/ml).
Meanwhile, 20 μl of phosphate buffered saline was used as a negative control group. After inoculation, cells were incubated at 37° C. for 48 hours, and then the medium, SP, and negative control group were removed. The cells were washed with the phosphate buffered saline three times. 90 μl of FGM medium was mixed with 10 μl of MTT solution (0.5 mg/ml), and treated to each well, and allowed to react at 37° C. for 4 hours.
Finally, the cells were washed with the phosphate buffered saline, and stirred in 150 μl of isopropyl alcohol solution for 10 minutes, and absorbance at 570 nm was measured.

[3] = test system: full-thickness skin wound models; test: Granulation tissue maturation (H&E) in skin wound mouse model; type: in vivo, BALB/c female mice; settings: 6 days after administration, compared to the negative control group
From the text: as §1, §2
(§3) Thereafter, to the wound site, phosphate buffered saline as the negative control was administered, and Madecassol care and Easyef cell regenerating ointments as the positive controls were administered. […] Specifically, each 30 μl of SP and each novel formulations were administered to the full-thickness wound once a day for 5 days.

[4] = Stability of SP at different storage temperatures (SP ELISA kit); type: physicochemical; settings: stored at 60° C., 37° C., RT, and 4° C. for 4 weeks
Description: Further, it was examined with respect to whether SP stability in each sample was maintained at different temperatures. […] The samples before storage were used as control groups. SP stability was analyzed using SP ELISA kit.

[5] = test system: full-thickness skin wound models; test: Epidermal regeneration effect (epidermal gaps, H&E) in skin wound mouse model; type: in vivo, BALB/c female mice; settings: 6 days after administration, compared to the control groups
From the text: as §1, §2, §3

[6] = Stability of SP over time in cell growth media KGM and FGM (SP ELISA kit); type: physicochemical; settings: stored in KGM and FGM media, 0-24 hrs
Description: SP and SP of SP+HEC+polysorbate 80+sodium thiosulfate formulation were stored in cell growth media for human epithelial keratinocyte (HEK) culture (keratinocyte growth media; KGM) and human dermal fibroblast (HDF) culture (fibroblast growth media; FGM).
Each sample was taken out of the media after a predetermined period of time (0 hr, 3 hrs, 6 hrs, 12 hrs and 24 hrs), and diluted with phosphate buffered saline, and then the SP content in each sample was analyzed using SP ELISA kit.

[7] = test system: full-thickness skin wound models; test: Angiogenic effect in skin wound mouse model; type: in vivo, BALB/c female mice; settings: biopsy 6 days after administration, FIG. 5
From the text: In detail, increased angiogenesis was confirmed by examining an image of angiogenesis on the skin tissue with the naked eye after biopsy of the skin tissue of the wound area 6 days after administration of the novel formulations.

Q: Which “size of the wound examined with the naked eye” value [1] does the source give for CSCC[C@H](NC(=O)[C@H](CC(C)C)NC(=O)CNC(=O)[C@H](Cc1ccccc1)NC(=O)[C@H](Cc1ccccc1)NC(=O)[C@H](CCC(N)=O)NC(=O)[C@H](CCC(N)=O)NC(=O)[C@@H]1CCCN1C(=O)[C@H](CCCCN)NC(=O)[C@@H]1CCCN1C(=O)[C@@H](N)CCCNC(=N)N)C(N)=O [SP] here?
A: no significant difference in the wound size; also recorded: slight difference

Q: What about the “wound area (size of wound area quantified)” value ([1]; 30 μl once a day for 5 days, topical to wound) of the same molecule?
A: ≥ 40%

Q: What about the cytotoxicity [2] of the same molecule?
A: without cytotoxicity

Q: And the cell proliferation rate ([2]; SP 5 μg/ml)?
A: ≥ 200%

Q: What about the “proliferation rate compared to the negative control group” value ([2]; SP 5 μg/ml, negative control phosphate buffered saline) of the same molecule?
A: ≥ 2.2 times

Q: And the cell proliferation rate ([2]; all concentration groups of 0.1 μg/ml to 100 μg/ml SP)?
A: ≥ 170%

Q: And the granulation tissue maturation [3]?
A: compact granulation tissue formation

Q: What about the “SP content according to temperature conditions (SP stability)” value [4] of the same molecule?
A: lower SP content than the SP+HEC+polysorbate 80+sodium thiosulfate formulation; also recorded: changes in the SP content according to temperature changes

Q: What about the epidermal gaps [5] of the same molecule?
A: about 60%

Q: And the “SP content over time (SP stability)” value [6]?
A: reduction in the SP content over time

Q: What about the “angiogenesis on the skin tissue (naked eye)” value [7] of the same molecule?
A: insignificant
